Read-outs that look alike come from different tables or passages of the source.
Experiments:
[1] = tested on: P-P70S6K (T389); assay: Cell based AlphaLISA assay, inhibition of P-P70S6K (T389) (mTORC1 substrate phosphorylation) in MDA-MB-468 cells; conditions: Homo sapiens, 4 h, AlphaLISA, two to four hours at 37° C., read-out: pIC50 for Inhibition of mTORC1 and mTORC2 Substrate Phosphorylation, P-P70S6K-(T389) (converted)
Procedure, shortened: (§1)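 Phosphoprotein levels were quantified with AlphaLISA SureFire Ultra kits after compound treatment. Incubation ended by removing assay buffer and lysing cells, and the Alpha signal was read in duplicate. IC50 came from normalized concentration-response regression with control-based normalization.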

[2] = tested on: P-4E-BP1 (T37/46); assay: Cell based AlphaLISA assay, inhibition of P-4E-BP1 (T37/46) (mTORC1 substrate phosphorylation) in MDA-MB-468 cells; conditions: Homo sapiens, AlphaLISA, two to four hours at 37° C., read-out: pIC50 for Inhibition of mTORC1 and mTORC2 Substrate Phosphorylation, P-4E-BP1-(T37/46) (converted)
Procedure, shortened: as §1

[3] = tested on: P-Akt (S473); assay: Cell based AlphaLISA assay, inhibition of P-Akt (S473) (mTORC2 substrate phosphorylation) in MDA-MB-468 cells; conditions: Homo sapiens, AlphaLISA, two to four hours at 37° C., read-out: pIC50 for Inhibition of mTORC1 and mTORC2 Substrate Phosphorylation, p-AKT 1/2/3 -(S473) (converted)
Procedure, shortened: as §1

| SMILES | IC50 [1] [nM] | IC50 ([2]; MDA-MB-468, 4 h) [nM] | IC50 ([3]; MDA-MB-468, 4 h) [nM] | IC50 ([2]; 4 h) [nM] | IC50 ([3]; 4 h) [nM] |
| --- | --- | --- | --- | --- | --- |
| COc1ccc(-c2ccc3ncc4c(c3c2)n(-c2ccc(N3CCN(c5ncc(CNC(=O)CCOCCOCCOCCOCCOCCOCCn6cc(CCCCO[C@@H]7CC[C@@H](C[C@@H](C)[C@@H]8CC(=O)[C@H](C)/C=C(\C)[C@@H](O)[C@@H](OC)C(=O)[C@H](C)C[C@H](C)/C=C/C=C/C=C(\C)[C@@H](OC)C[C@@H]9CC[C@@H](C)[C@@](O)(O9)C(=O)C(=O)N9CCCC[C@H]9C(=O)O8)C[C@H]7OC)nn6)cn5)CC3)c(C(F)(F)F)c2)c(=O)n4C)cn1 [Example 66] | < 1 | < 3.16 | < 3.16 |  |  |
| CO[C@H]1C[C@@H]2CC[C@@H](C)[C@@](O)(O2)C(=O)C(=O)N2CCCC[C@H]2C(=O)O[C@H]([C@H](C)C[C@@H]2CC[C@@H](OCCCCc3cn(CCOCCOCCOCCOCCOCCOCCC(=O)N4CCN(c5ccc(-n6c(=O)ccc7cnc8ccc(-c9cnc%10ccccc%10c9)cc8c76)cc5C(F)(F)F)CC4)nn3)[C@H](OC)C2)CC(=O)[C@H](C)/C=C(\C)[C@@H](O)[C@@H](OC)C(=O)[C@H](C)C[C@H](C)/C=C/C=C/C=C/1C [Example 67] | < 1 | < 3.16 | < 3.16 |  |  |
| CO[C@H]1C[C@@H]2CC[C@@H](C)[C@@](O)(O2)C(=O)C(=O)N2CCCC[C@H]2C(=O)O[C@H]([C@H](C)C[C@@H]2CC[C@@H](OCCCCc3cn(CCOCCOCCOCCOCCOCCOCCC(=O)NCCCCn4nc(-c5cnc6[nH]ccc6c5)c5c(N)ncnc54)nn3)[C@H](OC)C2)CC(=O)[C@H](C)/C=C(\C)[C@@H](O)[C@@H](OC)C(=O)[C@H](C)C[C@H](C)/C=C/C=C/C=C/1C [Example 68] | < 1 |  |  | 3.16 to 31.6 | 31.6 to 1000 |
| CO[C@H]1C[C@@H]2CC[C@@H](C)[C@@](O)(O2)C(=O)C(=O)N2CCCC[C@H]2C(=O)O[C@H]([C@H](C)C[C@@H]2CC[C@@H](OCCCCc3cn(CCOCCOCCOCCOCCOCCOCCOCCOCCC(=O)NCCCCn4nc(-c5cnc6[nH]ccc6c5)c5c(N)ncnc54)nn3)[C@H](OC)C2)CC(=O)[C@H](C)/C=C(\C)[C@@H](O)[C@@H](OC)C(=O)[C@H](C)C[C@H](C)/C=C/C=C/C=C/1C [Example 69] | < 1 |  |  | < 3.16 | 3.16 to 31.6 |
| CO[C@H]1C[C@@H]2CC[C@@H](C)[C@@](O)(O2)C(=O)C(=O)N2CCCC[C@H]2C(=O)O[C@H]([C@H](C)C[C@@H]2CC[C@@H](OCCCCc3cn(CCOCCOCCOCCOCCOCCOCCC(=O)NCCCCn4nc(-c5cnc6[nH]ccc6c5)c5c(N)ncnc54)nn3)[C@H](OC)C2)C[C@@H](OC)[C@H](C)/C=C(\C)[C@@H](O)[C@@H](OC)C(=O)[C@H](C)C[C@H](C)/C=C/C=C/C=C/1C [Example 70] | 1 to 10 | > 1000 | > 1000 |  |  |
| COC(=O)N[C@H]1C[C@@H]2CC[C@@H](C)[C@@](O)(O2)C(=O)C(=O)N2CCCC[C@H]2C(=O)O[C@H]([C@H](C)C[C@@H]2CC[C@@H](OCCCCc3cn(CCOCCOCCOCCOCCOCCOCCOCCOCCC(=O)NCCCCn4nc(-c5cc6cc(O)ccc6[nH]5)c5c(N)ncnc54)nn3)[C@H](OC)C2)CC(=O)[C@H](C)/C=C(\C)[C@@H](O)[C@@H](OC)C(=O)[C@H](C)C[C@H](C)/C=C/C=C/C=C/1C [Example 71] | 1 to 10 | 3.16 to 31.6 | > 1000 |  |  |
| COC(=O)N[C@H]1C[C@@H]2CC[C@@H](C)[C@@](O)(O2)C(=O)C(=O)N2CCCC[C@H]2C(=O)O[C@H]([C@H](C)C[C@@H]2CC[C@@H](OCCCCc3cn(CCOCCOCCOCCOCCOCCOCCOCCOCCC(=O)N4CCN(c5ccc(-n6c(=O)n(C)c7cnc8ccc(-c9ccc(OC)nc9)cc8c76)cc5C(F)(F)F)CC4)nn3)[C@H](OC)C2)CC(=O)[C@H](C)/C=C(\C)[C@@H](O)[C@@H](OC)C(=O)[C@H](C)CC(C)/C=C/C=C/C=C/1C (stereo partly drawn) [Example 72] | < 1 | < 3.16 | < 3.16 |  |  |
| COC(=O)N[C@H]1C[C@@H]2CC[C@@H](C)[C@@](O)(O2)C(=O)C(=O)N2CCCC[C@H]2C(=O)O[C@H]([C@H](C)C[C@@H]2CC[C@@H](OCCCCc3cn(CCOCCOCCOCCOCCOCCOCCC(=O)N4CCN(c5ccc(-n6c(=O)n(C)c7cnc8ccc(-c9ccc(OC)nc9)cc8c76)cc5C(F)(F)F)CC4)nn3)[C@H](OC)C2)CC(=O)[C@H](C)/C=C(\C)[C@@H](O)[C@@H](OC)C(=O)[C@H](C)C[C@H](C)/C=C/C=C/C=C/1C [Example 73] | < 1 | < 3.16 | < 3.16 |  |  |
| CO[C@@H]1C[C@H](C[C@@H](C)[C@@H]2CC(=O)[C@H](C)/C=C(\C)[C@@H](O)[C@@H](OC)C(=O)[C@H](C)C[C@H](C)/C=C/C=C/C=C(\C)[C@@H](c3ccco3)C[C@@H]3CC[C@@H](C)[C@@](O)(O3)C(=O)C(=O)N3CCCC[C@H]3C(=O)O2)CC[C@H]1OCCCCc1cn(CCOCCOCCOCCOCCOCCOCCOCCOCCC(=O)NCCCCn2nc(-c3cc4cc(O)ccc4[nH]3)c3c(N)ncnc32)nn1 [Example 76] | < 1 | < 3.16 | 3.16 to 31.6 |  |  |
| CO[C@H]1C[C@@H]2CC[C@@H](C)[C@@](O)(O2)C(=O)C(=O)N2CCCC[C@H]2C(=O)O[C@H]([C@H](C)C[C@@H]2CC[C@@H](OCCCCc3cn(CCOCCOCCOCCOCCOCCOCCOCCOCCC(=O)NCCCCn4nc(-c5ccc6oc(N)nc6c5)c5c(N)ncnc54)nn3)[C@H](OC)C2)C[C@@H](OC)[C@H](C)/C=C(\C)[C@@H](O)[C@@H](OC)C(=O)[C@H](C)C[C@H](C)/C=C/C=C/C=C/1C [Example 77] | < 1 | < 3.16 | 3.16 to 31.6 |  |  |
| CO[C@H]1C[C@@H]2CC[C@@H](C)[C@@](O)(O2)C(=O)C(=O)N2CCCC[C@H]2C(=O)O[C@H]([C@H](C)C[C@@H]2CC[C@@H](O)[C@H](OC)C2)C[C@@H](O)[C@H](C)/C=C(\C)[C@@H](O)[C@@H](OC)C(=NOCc2cn(CCOCCOCCOCCOCCOCCOCCOCCOCCC(=O)NCCCCn3nc(-c4cnc5[nH]ccc5c4)c4c(N)ncnc43)nn2)[C@H](C)C[C@H](C)/C=C/C=C/C=C/1C [Example 79] | < 1 | 3.16 to 31.6 | 31.6 to 1000 |  |  |
| COC(=O)N[C@H]1C[C@@H]2CC[C@@H](C)[C@@](O)(O2)C(=O)C(=O)N2CCCC[C@H]2C(=O)O[C@H]([C@H](C)C[C@@H]2CC[C@@H](OCCCCc3cn(CCOCCOCCOCCOCCOCCOCCOCCOCCC(=O)NCCCCn4nc(-c5cnc6[nH]ccc6c5)c5c(N)ncnc54)nn3)[C@H](OC)C2)CC(=O)[C@H](C)/C=C(\C)[C@@H](O)[C@@H](OC)C(=O)[C@H](C)C[C@H](C)/C=C/C=C/C=C/1C [Example 81] | 1 to 10 | 3.16 to 31.6 | 31.6 to 1000 |  |  |
| CO[C@H]1C[C@@H]2CC[C@@H](C)[C@@](O)(O2)C(=O)C(=O)N2CCCC[C@H]2C(=O)O[C@H]([C@H](C)C[C@@H]2CC[C@@H](OCCCCc3cn(CCOCCOCCOCCOCCOCCOCCOCCOCCC(=O)N(C)CCCCn4nc(-c5ccc6oc(N)nc6c5)c5c(N)ncnc54)nn3)[C@H](OC)C2)CC(=O)[C@H](C)/C=C(\C)[C@@H](O)[C@@H](OC)C(=O)[C@H](C)C[C@H](C)/C=C/C=C/C=C/1C [Example 83] | < 1 | < 3.16 | < 3.16 |  |  |
| CO[C@H]1C[C@@H]2CC[C@@H](C)[C@@](O)(O2)C(=O)C(=O)N2CCCC[C@H]2C(=O)O[C@H]([C@H](C)C[C@@H]2CC[C@@H](OCCCCc3cn(CCOCCOCCOCCOCCOCCOCCC(=O)N(C)CCCCn4nc(-c5ccc6oc(N)nc6c5)c5c(N)ncnc54)nn3)[C@H](OC)C2)CC(=O)[C@H](C)/C=C(\C)[C@@H](O)[C@@H](OC)C(=O)[C@H](C)C[C@H](C)/C=C/C=C/C=C/1C [Example 84] | < 1 | < 3.16 | 3.16 to 31.6 |  |  |
| CO[C@H]1C[C@@H]2CC[C@@H](C)[C@@](O)(O2)C(=O)C(=O)N2CCCC[C@H]2C(=O)O[C@H]([C@H](C)C[C@@H]2CC[C@@H](OCCCCc3cn(CCOCCOCCOCCOCCOCCOCCOCCOCCC(=O)NCc4ccc(Cn5nc(-c6ccc7oc(N)nc7c6)c6c(N)ncnc65)cc4)nn3)[C@H](OC)C2)CC(=O)[C@H](C)/C=C(\C)[C@@H](O)[C@@H](OC)C(=O)[C@H](C)C[C@H](C)/C=C/C=C/C=C/1C [Example 85] | < 1 |  |  | < 3.16 | 3.16 to 31.6 |
| CO[C@H]1C[C@@H]2CC[C@@H](C)[C@@](O)(O2)C(=O)C(=O)N2CCCC[C@H]2C(=O)O[C@H]([C@H](C)C[C@@H]2CC[C@@H](OCCCCc3cn(CCOCCOCCOCCOCCOCCOCCC(=O)NCc4ccc(Cn5nc(-c6ccc7oc(N)nc7c6)c6c(N)ncnc65)cc4)nn3)[C@H](OC)C2)CC(=O)[C@H](C)/C=C(\C)[C@@H](O)[C@@H](OC)C(=O)[C@H](C)C[C@H](C)/C=C/C=C/C=C/1C [Example 86] | < 1 | < 3.16 | 3.16 to 31.6 |  |  |
| CO[C@H]1C[C@@H]2CC[C@@H](C)[C@@](O)(O2)C(=O)C(=O)N2CCCC[C@H]2C(=O)O[C@H]([C@H](C)C[C@@H]2CC[C@@H](O)[C@H](OC)C2)C[C@@H](O)[C@H](C)/C=C(\C)[C@@H](O)[C@@H](OC)C(=NOCc2cn(CCOCCOCCOCCOCCOCCOCCOCCOCCC(=O)N3CCc4cc(Cn5nc(-c6ccc7oc(N)nc7c6)c6c(N)ncnc65)ccc4C3)nn2)[C@H](C)C[C@H](C)/C=C/C=C/C=C/1C [Example 87] | < 1 | 3.16 to 31.6 | > 1000 |  |  |
